Data published in patent US7820624B2, “Peptide ligands” (ICH Productions Limited, priority 2003, dated 2010).

How the values were obtained:
HMEC-1 cells = test: LID transfection, luciferase reporter assay, HMEC-1; format: cell-based, human; settings: LID with lipofectin
Description: (§1) Transfection complexes comprising lipid, peptide and DNA were prepared. The lipid component was lipofectin (Invitrogen Ltd, Paisley, UK), the peptide component was a peptide A to F, 6 or 6J derivative, as described above, and the DNA was the plasmid pCILuc (Promega UK Ltd, Southampton). In the transfection complex, peptide to DNA charge ratios (+/−) were used at 3:1, 5:1 and 7:1. The lipid component was maintained at a constant proportion, by weight, relative to DNA of 0.75:1. Prior to making transfection complexes the lipid component was diluted to a concentration of 15 μg or 30 μg per ml, the peptide was prepared at 0.1 mg/ml and the DNA was at 40 μg per ml. All dilutions were performed with OptiMEM reduced serum tissue culture medium (Life Technologies). Transfection complexes were made by mixing of components in the order 1) lipid then 2) peptide and finally 3) DNA, then diluted with OptiMEM to a concentration relative to the DNA component of 0.25 μg DNA per […]
(§2) For transfection of these types of cell i.e. HMEC, HAEo-, N2a and HepG2, 1×10^4 cells were seeded overnight in 96 well plate. 200 μl of the suspension of the transfection complex prepared according to (b) above was added to each well. The suspension was applied to cells within 5 minutes of preparation. […]

N2a (Neuro2A) cells = test: LID transfection, luciferase reporter assay, N2a; format: cell-based, mouse; settings: LID with lipofectin
Description: as §1, §2

[1] = test system: human monocyte-derived immature dendritic cells; test: LID (lipid-peptide-DNA) transfection of immature dendritic cells, EGFP by FACS and 7AAD cell death; format: cell-based; settings: for Transfection efficiency, % positive cells: day 4 cells; for Transfection efficiency (percentage cells positive for EGFP) relative to peptide 6: day 6 cells, LID vector
Description: Lipopolyplex (LID) transfection complexes comprising lipid (L), peptide (in the form of a peptide derivative as described above) (I) and DNA (D) were prepared. The lipid component was Lipofectin or Lipofectamine 2000 (Invitrogen Ltd, Paisley, UK), the peptide component was a synthesized peptide A to F, 6 or 6J derivative, as described in Table 7 above, and the DNA was the plasmid pEGFP-N1 (Clontech, BD Biosciences, Palo Alto, Calif.)
In the transfection complex, peptide component to DNA charge ratios (+/−) were used at 1.5:1, 3:1 and 7:1. The lipid
component (Lipofectin or Lipofectamine 2000) was maintained at a constant proportion, by weight, relative to DNA of 0.75:1. Prior to making transfection complexes, in method A the lipid component was diluted to a concentration of 15 μg per ml, the peptide was prepared at 0.1 mg/ml and the DNA (plasmid pEGFP-N1, BD Biosciences, Cowley, UK, prepared using EndoFree plasmid kit, Qiagen Ltd, Crawley, UK) was at 10 μg per ml. All dilutions were performed with OptiMEM reduced serum tissue culture medium (Life Technologies Ltd, Paisley, UK). In method B prior to making transfection complexes the lipid component was diluted to a concentration of 30 μg per ml, the peptide was prepared at 0.1 mg/ml and the DNA (plasmid pEGFP-N1, BD Biosciences, Cowley, UK, prepared using EndoFree plasmid kit, Qiagen Ltd, Crawley, UK) was at […]. All dilutions were performed in serum-free RPMI.
Transfection complexes were made by mixing the components in the order 1) lipid (50 μl) then 2) peptide (70 μl) and finally 3) DNA (50 μl), then diluting with OptiMEM or serum free RPMI, as appropriate, to a concentration relative to the DNA component of 2 μg DNA per […] (OptiMEM) or 500 μl (RPMI).
Immature day 6 dendritic cells, obtained as described in Example 1(v) above, were plated into a 48 well plate at 5×10^4 cells per well in complete media and allowed to settle for 3 hours at 37° C. 300 μl or 500 μl (as appropriate) of the transfection complex obtained as described above was added to each well. The transfection complex was applied to cells within 5 minutes of preparation. Transfection incubations were performed at 37° C. for 4 hours, after which the medium was replaced with complete medium with cytokines for 24 hours. Cells were harvested by scraping, spun down and resuspended in 300 μl PBS for FACS analysis to determine the percentage of cells positive for the reporter gene EGFP (Enhanced Green Fluorescent Protein). Each transfection was performed in triplicate wells.
For transfection of monocytes, peripheral blood monocytes were prepared using Lymphoprep centrifugation and CD14 bead selection as described in the method for preparation of monocyte derived dendritic cells in Example 1(v) above. These cells were then transfected as described as described for dendritic cells except that transfection of the monocytes (and also of day 3 or day 4 immature dendritic cells) was carried out in solution.

[2] = lipofectin, lipid:DNA 0.75:1, peptide:DNA 7:1 (FIG. 5a)

APSNSTA (Synthetic peptide binding to dendritic cells)
Transfection efficiency (luciferase activity per mg protein) relative to peptide 6 (HMEC-1 cells): one and a half times that of peptide 6
Transfection efficiency (luciferase activity per mg protein) relative to peptide 6 (N2a (Neuro2A) cells): less than half that value
Transfection efficiency, % positive cells [1, 2]: 11%
Transfection efficiency (percentage cells positive for EGFP) relative to peptide 6 [1]: equal to those of peptide 6

SHVKLNS (Synthetic peptide binding to dendritic cells)
Transfection efficiency (luciferase activity per mg protein) relative to peptide 6 (HMEC-1 cells): approximately equal to that seen with peptide 6
Transfection efficiency (luciferase activity per mg protein) relative to peptide 6 (N2a (Neuro2A) cells): equal to those seen with peptide 6
Transfection efficiency, % positive cells [1, 2]: 17%
Transfection efficiency, % positive cells ([1]; no lipid): less than 1%
Transfection efficiency (percentage cells positive for EGFP) relative to peptide 6 [1]: approximately one and a half times that of the positive control, peptide 6
